Where two headings read alike, the source gives them in different places.
Experiments:
Assay type in all cases: cell-based
K. pneumoniae = assay: Equivalent MIC of antibiotics in VITEK cards, gram-negative bacteria (Table 3); conditions: for MIC: Klebsiella pneumoniae, 12 h
Experimental: (§1) With the determination of the sensitivity to antibiotics in mind, a suspension of 0.5 MF (Mac Farland) in physiological water was prepared from bacterial colonies selected in Petri dishes, reading being carried out on an ATB 1550 densitometer marketed by BIOMERIEUX (ATB trade mark). The suspension obtained was respectively diluted to 1/100th in the medium of the invention and Mueller-Hinton medium. VITEK cards (VITEK trade mark) containing different antibiotics at 10 concentrations were filled in vacuo into a VITEK apparatus marketed by BIOMERIEUX-VITEK. The cards were incubated for 12 hours in a VITEK incubator/reader marketed by BIOMERIEUX-VITEK. The growth kinetics were visualized and interpreted and an equivalent MIC was determined (equivalent MIC: equivalent minimum inhibitory concentration, that is to say the smallest concentration for which no bacterial growth is detected by the apparatus).
(§2) IST refers to the medium of the invention and MH signifies Mueller-Hinton medium.
(§3) S, I and R respectively signify "sensitive", "intermediate" and "resistant" with reference to the critical concentrations defined by the NCCLS (National Committee for Clinical Laboratory Standards).

S. marcescens = assay: as above; conditions: for MIC: Serratia marcescens, 12 h, read-out: Equivalent MIC
Experimental: as §1, §2, §3

P. aeruginosa = assay: as above; conditions: for MIC: Pseudomonas aeruginosa, 12 h, read-out: Equivalent MIC
Experimental: as §1, §2, §3

E. faecalis = assay: Equivalent MIC of antibiotics in VITEK cards, gram-positive bacteria (Table 4); conditions: for MIC: Enterococcus faecalis, 12 h
Experimental: as §1, §2
(§4) *A range of concentration, of ratio 2, was tested for each antibiotic in
(§5) each of the abovementioned concentration margins.
as §3

S. epidermidis = assay: microbe, parasite or virus in culture; conditions: for MIC: Staphylococcus epidermidis, 12 h, read-out: Equivalent MIC
Experimental: as §1, §2, §4, §5, §3

S. aureus = assay: microbe, parasite or virus in culture; conditions: for MIC: Staphylococcus aureus, read-out: Equivalent MIC
Experimental: as §1, §2, §4, §5, §3

CCN1CCN(C(=O)N[C@@H](C(=O)N[C@@H]2C(=O)N3[C@@H]2SC(C)(C)[C@@H]3C(=O)O)c2ccccc2)C(=O)C1=O [piperacillin]
NCCLS Category (K. pneumoniae; AP 14, MH medium): R | NCCLS Category (K. pneumoniae; CDC 2174, IST medium): S | NCCLS Category (K. pneumoniae; CDC 2174, MH medium): S | NCCLS Category (K. pneumoniae; CDC 2182, IST medium): S | NCCLS Category (K. pneumoniae; CDC 2182, MH medium): I | MIC (K. pneumoniae; AP 14, IST medium): 64 µg/mL | MIC (K. pneumoniae; AP 14, MH medium): 256 µg/mL | MIC (K. pneumoniae; CDC 2174, IST medium): 8 µg/mL | MIC (K. pneumoniae; CDC 2174, MH medium): 8 µg/mL | MIC (K. pneumoniae; CDC 2182, IST medium): 16 µg/mL | MIC (K. pneumoniae; CDC 2182, MH medium): 32 µg/mL | NCCLS Category (S. marcescens; CDC 2021, IST medium): S | NCCLS Category (S. marcescens; CDC 2021, MH medium): S | NCCLS Category (S. marcescens; CDC 2162, IST medium): R | NCCLS Category (S. marcescens; CDC 2162, MH medium): R | MIC (S. marcescens; CDC 2021, IST medium): 2 µg/mL | MIC (S. marcescens; CDC 2021, MH medium): 2 µg/mL | MIC (S. marcescens; CDC 2162, IST medium): > 256 µg/mL | MIC (S. marcescens; CDC 2162, MH medium): > 256 µg/mL | NCCLS Category (P. aeruginosa; AP 8, IST medium): S | NCCLS Category (P. aeruginosa; AP 8, MH medium): S | NCCLS Category (P. aeruginosa; AP 13, IST medium): S | NCCLS Category (P. aeruginosa; AP 13, MH medium): S | MIC (P. aeruginosa; AP 8, IST medium): 4 µg/mL | MIC (P. aeruginosa; AP 8, MH medium): 4 µg/mL | MIC (P. aeruginosa; AP 13, IST medium): 8 to 16 µg/mL | MIC (P. aeruginosa; AP 13, MH medium): 16 µg/mL

CN[C@H](CC(C)C)C(=O)N[C@H]1C(=O)N[C@@H](CC(N)=O)C(=O)N[C@H]2C(=O)N[C@H]3C(=O)N[C@H](C(=O)N[C@H](C(=O)O)c4cc(O)cc(O)c4-c4cc3ccc4O)[C@H](O)c3ccc(c(Cl)c3)Oc3cc2cc(c3O[C@@H]2O[C@H](CO)[C@@H](O)[C@H](O)[C@H]2O[C@H]2C[C@](C)(N)[C@H](O)[C@H](C)O2)Oc2ccc(cc2Cl)[C@H]1O [vancomycin]
NCCLS Category (E. faecalis; CDC 2017, IST medium): I | NCCLS Category (E. faecalis; CDC 2017, MH medium): I | NCCLS Category (E. faecalis; CDC 2225, IST medium): S | NCCLS Category (E. faecalis; CDC 2225, MH medium): S | NCCLS Category (E. faecalis; CDC 2230, IST medium): S | NCCLS Category (E. faecalis; CDC 2230, MH medium): S | MIC (E. faecalis; CDC 2017, IST medium): 8 µg/mL | MIC (E. faecalis; CDC 2017, MH medium): 16 µg/mL | MIC (E. faecalis; CDC 2225, IST medium): 4 µg/mL | MIC (E. faecalis; CDC 2225, MH medium): 4 µg/mL | MIC (E. faecalis; CDC 2230, IST medium): 1 µg/mL | MIC (E. faecalis; CDC 2230, MH medium): 1 to 2 µg/mL | NCCLS Category (S. epidermidis; CDC 2024, IST medium): S | NCCLS Category (S. epidermidis; CDC 2024, MH medium): S | NCCLS Category (S. epidermidis; CDC 2105, IST medium): S | NCCLS Category (S. epidermidis; CDC 2105, MH medium): S | NCCLS Category (S. epidermidis; CDC 2234, IST medium): S | NCCLS Category (S. epidermidis; CDC 2234, MH medium): S | MIC (S. epidermidis; CDC 2024, IST medium): 4 µg/mL | MIC (S. epidermidis; CDC 2024, MH medium): 4 µg/mL | MIC (S. epidermidis; CDC 2105, IST medium): 4 µg/mL | MIC (S. epidermidis; CDC 2105, MH medium): 2 µg/mL | MIC (S. epidermidis; CDC 2234, IST medium): 2 µg/mL | MIC (S. epidermidis; CDC 2234, MH medium): 2 µg/mL | NCCLS Category (S. aureus; ATCC 29213, IST medium): S | NCCLS Category (S. aureus; ATCC 29213, MH medium): S | NCCLS Category (S. aureus; CDC 2194, IST medium): S | NCCLS Category (S. aureus; CDC 2194, MH medium): S | NCCLS Category (S. aureus; CDC 2215, IST medium): S | NCCLS Category (S. aureus; CDC 2215, MH medium): S | MIC (S. aureus; 12 h, CDC 2194, IST medium): 2 µg/mL | MIC (S. aureus; 12 h, CDC 2194, MH medium): 1 µg/mL | MIC (S. aureus; 12 h, CDC 2215, IST medium): 2 µg/mL | MIC (S. aureus; 12 h, CDC 2215, MH medium): 1 µg/mL | MIC (S. aureus; ATCC29213, 12 h, ATCC 29213, IST medium): 2 µg/mL | MIC (S. aureus; ATCC29213, 12 h, ATCC 29213, MH medium): 2 µg/mL

gentamicin
Equivalent MIC (K. pneumoniae; CDC 2177, IST medium): 0.5 µg/mL | NCCLS Category (K. pneumoniae; CDC 2177, IST medium): S | Equivalent MIC (K. pneumoniae; CDC 2177, MH medium): 0.25 µg/mL | NCCLS Category (K. pneumoniae; CDC 2177, MH medium): S | Equivalent MIC (K. pneumoniae; CDC 2249, IST medium): 8 µg/mL | NCCLS Category (K. pneumoniae; CDC 2249, IST medium): I | Equivalent MIC (K. pneumoniae; CDC 2249, MH medium): 8 µg/mL | NCCLS Category (K. pneumoniae; CDC 2249, MH medium): I | Equivalent MIC (K. pneumoniae; CDC 2279, IST medium): 4 µg/mL | NCCLS Category (K. pneumoniae; CDC 2279, IST medium): S | Equivalent MIC (K. pneumoniae; CDC 2279, MH medium): 4 µg/mL | NCCLS Category (K. pneumoniae; CDC 2279, MH medium): S | Equivalent MIC (P. aeruginosa; CDC 2009, IST medium): 16 to 32 µg/mL | NCCLS Category (P. aeruginosa; CDC 2009, IST medium): R | Equivalent MIC (P. aeruginosa; CDC 2009, MH medium): 32 µg/mL | NCCLS Category (P. aeruginosa; CDC 2009, MH medium): R | Equivalent MIC (P. aeruginosa; CDC 2239, IST medium): 2 µg/mL | NCCLS Category (P. aeruginosa; CDC 2239, IST medium): S | Equivalent MIC (P. aeruginosa; CDC 2239, MH medium): 2 µg/mL | NCCLS Category (P. aeruginosa; CDC 2239, MH medium): S | Equivalent MIC (P. aeruginosa; CDC 2257, IST medium): 0.5 to 1 µg/mL | NCCLS Category (P. aeruginosa; CDC 2257, IST medium): S | Equivalent MIC (P. aeruginosa; CDC 2257, MH medium): 0.5 µg/mL | NCCLS Category (P. aeruginosa; CDC 2257, MH medium): S

— patent US5536645A, “Nutritive medium for the culture of microorganism” (priority 1993, dated 1996)
